The assay has as its system WistarF/Han (WF) rats. The experiment in a line: Elevated plus maze (EPM) test after i.c.v. treatment. As to conditions: low dose (50pmol), Fig. 6. In kind it is in vivo. On the procedure: Animals. Male WistarF/Han (WF) rats (Central Animal Laboratory, Hannover Medical School, Hannover, Germany, see http://www.mh-hannover.de/institut/tierlabor/wf.htm for details), weighing 350-390g, were housed in a sound-proof, temperature controlled (24.0±0.5°C) room under specific pathogen free conditions with a 12/12h dark/light cycle (lights on at 07.00 with illumination level of 80 Lux). Food (Altromin lab chow pellets) and tap water were available ad libitum. Under ketamine/xylasine (100/5 mg/kg, i.p.) anesthesia, the rats were fixed in a Kopf stereotaxic frame and implanted with cannulae (Plastic One, Inc., Roanoke, VA, USA) above the lateral ventricle. All research and animal care procedures were approved by the Lower Saxony district government (Hannover, Germany) and followed principles described in the European Community's Council Directive of 24 November 1986 (86/609/EEC). […]
Elevated plus maze (EPM) testing. […] The following parameters were calculated: Total numbers of arm entries (TA); entries to closed arms (CA); entries to open arms (OA); percentage frequency of entries to open arms (%OA: OAx100/TA); total trial duration (TT): 300s; duration of stay in closed arms (closed time; CLT); percentage share of CLT in total arms-stay duration (CLTx100/AT); duration of stay in open arms (open time; OT) and percentage share of OT in total arm-stay duration (%OT: OTx100/AT). […]

Molecules are shown by their SMILES.

With `CCC(C)C(N)C(=O)N1CCSC1` (stereo not shown) [isoleucyl thiazolidine], the “percentage of time spent on the open arms of the maze” value was “increased”.
